According to article PMC10819888, “Benzimidazole-Based Derivatives as Apoptotic Antiproliferative Agents: Design, Synthesis, Docking, and Mechanistic Studies” (Molecules, 2024):

Test system: caspase-3
Test: Caspase-3 activation assay
Format: cell-based, human
Conditions: PC-3 cell line
From the text: Caspase-3 is a key caspase that cleaves numerous cell proteins, resulting in apoptosis. […] They elevated the protein caspase-3 in the PC-3 cancer cell line by around seven to nine times compared to untreated control cells.
For more details, see Supplementary Materials. […]
4.2.3. Caspase-3 activation assay
Allow all reagents to reach room temperature before use. Gently mix all liquid reagents prior to use. Determine the number of 8-well strips needed for the assay. Insert these in the frame(s) for current use. Add 100 μl of the Standard Diluent Buffer to the zero standard wells. Well(s) reserved for chromogen blank should be left empty. Add 100 μl of standards and controls or diluted samples to the appropriate microtiter wells. The sample dilution chosen should be optimized for each experimental system. Tap gently on side of plate to mix. Cover wells with plate cover and incubate for 2 hours at room temperature. Thoroughly aspirate or decant solution from wells and discard the liquid, Wash wells 4 times. Pipette 100 μl of Caspase-3 (Active) Detection Antibod y solution into each well except the chromogen blank(s). Tap gently on the side of the plate to mix.
Cover plate with plate cover and incubate for 1 hour at room temperature. Thoroughly aspirate or decant solution from wells and discard the liquid, Wash well s 4 times. Add 100 μl Anti-Rabbit IgG HRP Working Solution to each well except the chromogen blank(s). Prepare the working dilution as described in Preparing IgG HRP. Cover wells with the plate cover and incubate for 30 minutes at room temperature. Thoroughly aspirate or decant solution from wells and discard the liquid. Wash wells 4 times. Add 100 μl of Stabilized Chromogen to each well. The liquid in the wells will begin to turn blue. Incubate for 30 minutes at room temperature and in the dark. The incuba tion time for chromogen substrate is often determined by the microtiter plate reader used. Many plate readers have the capacity to record a maximum optical density (O.D.) of 2.0. The O.D. values should be monitored, and the substrate reaction stopped befor e the O.D. of […]
the positive wells exceeds the limits of the instrument. The O.D. values at 450 nm can only be read after the Stop Solution has been added to each well. If using a reader that […]
100 μl of Stop Solution to each well. Tap side of plate gently to mix. The solution in the wells should change from blue to yellow. Read the absorbance of each well at 450 nm having blanked the plate reader against a chromogen blank composed of 100 μl each of Stabilized Chromogen and Stop Solution. Read the plate within 2 hours after adding the Stop Solution. Use a curve fitting software to generate the standard curve. A four-parameter algorithm provides the best standard curve fit. Read the concentrations for unknown samples and controls from the standard curve. Multiply value(s) obtained for sample(s) by the appropriate dilution factor to correct for the dilution in step 3. Samples producing signals greater than that of the highest standard should be diluted in Standard Diluent Buffer and reanalyzed. […]
A standard curve is […]
prepared from 7human Caspase-8 standard dilutions and human Caspase-8 concentration determined.

Compound | Caspase-3 Conc | caspase-3 protein level | Caspase-3 Fold Change (vs control)
O=C(NN=Cc1ccc([N+](=O)[O-])cc1)c1ccc2[nH]c(-c3ccc(Cl)cc3)nc2c1 [Compound 4c, N′-(4-Nitrobenzylidene)-2-(4-chlorophenyl)-1H-benzimidazole-5-carbohydrazide] | 365 ± 12 pg/mL | 365 ± 12 pg/mL | 
O=C(NN=Cc1ccc(Cl)cc1)c1ccc2[nH]c(-c3ccc(Cl)cc3)nc2c1 [Compound 4e, N′-(4-Chlorobenzylidene)-2-(4-chlorophenyl)-1H-benzimidazole-5-carbohydrazide] | 470 ± 15 pg/mL | 470 ± 15 pg/mL | 9
